# Data reported in patent EP0651636B1, “CHEMOTHERAPY FOR CANCER” (THE JOHNS HOPKINS UNIVERSITY, priority 1992, dated 1994).
# pIC50, pKi: −log10 of the molar value. Where two headings read alike, the source gives them in different places.
# Tests used:
# condensing enzyme = condensing enzyme (Saccharomyces cerevisiae, UniProt P19097); conditions: report of Morisaki, et. al.; cited from earlier work
# [1] = tested on: SK-BR-3 human mammary carcinoma cells; test: Crystal violet growth inhibition assay, 48 hour exposure; type: cell-based
# Method: (§1) This experiment was performed using the crystal violet growth inhibition assay. Cells with varying degrees of FAS activity were plated at 5000 cells per well in 96 well plates in RPMI-1640 with 10% heat-inactivated fetal bovine serum. After 72 hours of incubation in a humidified 95% air: 5% CO2 atmosphere, varying concentrations (0-500 µg/ml) of TOFA (5-tetradecyloxyl)-2-furoic acid were added and cultures were re-incubated for 48 hours. Plates were then removed and stained with crystal violet as described. Absorbance readings were averaged for each concentration of agent (n=4), control (n=8), and background (n=8). Background readings were subtracted. The concentration of TOFA is plotted against growth (as % of control growth) in Figure 15.
# In these experiments, cells were plated at 5000 cells per well in a 96-well microtiter plate and maintained in RPMI-1640 with 10% heat-inactivated fetal bovine serum for 72 hours. Next, the compounds indicated in Table 4 were added, and cells were incubated for an additional 48 hours. Growth inhibition was then measured using the crystal violet method.
# normal human fibroblasts = test: In vitro growth inhibition assay (crystal violet) with oleic acid supplement; type: cell-based; conditions: for effect on normal human fibroblasts: standard in vitro growth inhibition assays
# Method: (§2) In vitro growth inhibition assays for OA-519 inhibition were performed using ZR-75-1 cells or normal human fibroblasts which were grown to confluence, and then 25,000 cells were plated in 1:1 conditioned:fresh medium (RPMI with 10% fetal calf serum) supplemented at a physiologic level to 0.5 millimolar oleic acid bound to previously delipidized bovine serum albumin. Cells were allowed to attach and grow overnight. At time 0, drugs diluted in RPMI medium with 10% fetal calf serum were added to achieve the following concentrations: 50 µg/ml to 0.01 µg/ml with serial two-fold dilutions including no drug and empty well controls. Each concentration was performed in quadruplicate and time points were taken at 4, 8, 24, and 48 h. After drug treatment, cells were stained with crystal violet, solubilized in SDS, and read on a Molecular Diagnostics automated plate reader at 570 nm.
# ZR-75-1 cells [2] = test: as above; type: cell-based, human; conditions: for effect on carcinoma cells: standard in vitro growth inhibition assays
# Method: as §2
# Vero = conditions: cited from earlier work
# [3] = target: rat liver acyl-CoA synthetase; conditions: read-out: concentration causing 50% inhibition; cited from earlier work
# ZR-75-1 cells [4] = test: Triacsin-C and cerulenin synergy, crystal violet growth inhibition; type: cell-based; conditions: Homo sapiens, ZR-75-1, 24 h
# Method: 96 well microtiter plates were plated with ZR-75-1 cells at 25,000 cells/well and incubated overnight (18 h) at 37° C in 5% CO2. Triacsin-C was added to achieve the following micromolar concentrations in the presence of 0, 2.5, 5.0 or 10.0 µg/ml cerulenin: 50, 25, 12.5, 6.2, 3.1, 1.6, 0.8, 0.4, 0.2, 0.1 and 0. Each concentration was performed in quadruplicate. Cells were incubated for 24 hours, washed in PBS, solubilized in 1% SDS, stained with 0.2% crystal violet in 2% ethanol, and read at 490 nm on a Molecular Diagnostics plate reader.
# Hela cells = conditions: cited from earlier work
# Raji cells = conditions: cited from earlier work
# MCF-7 cells [5] = test: Clonogenic assay; type: cell-based, human; conditions: 10 µg/ml; exposure time 24 hours
# Method: Clonogenic assay: One million cells were plated in 25 cm sq. flasks. […] Cells were then trypsinized to a single cell suspension and plated in 16 mm dishes at 1000 or 500 cells per dish in triplicate. Following 3 days incubation for ZR-75-1 and MCF-7 cells, and 7 days for SKBR3 cells, colonies were counted and expressed as the percentage of the untreated control.
# ZR-75-1 cells [6] = test: Oleate rescue from cerulenin growth inhibition; type: cell-based, human; conditions: 10 µg/ml cerulenin for 24 hours; 1.5 mM oleate
# Method: ZR-75-1 cells (5,000 per well) were plated in 96 well microtiter plates in medium supplemented with 0, 0.5, 1.0 or 1.5 mM oleate bound to delipidized bovine serum albumin at a molar ration of 4:1. After 18 hours incubation, cerulenin was added at a dose of 10 µg/ml. Cells were stained and assayed as in Example 10 after 24 hours (Figure 17, upper line) or 48 hours (lower line). The middle line of Figure 17 represents cells which were re-fed at 24 hours with medium containing the respective oleate concentration without cerulenin and assayed after a 48 hour total incubation. Error bars represent standard error of the mean.
# viral HIV protease = viral HIV protease (Human immunodeficiency virus type 1 group M subtype B, UniProt P04585); conditions: cited from earlier work
# Dupro-1 = test: Population doubling assay, viable cell count (trypan blue); type: cell-based; conditions: Homo sapiens; 48-hour exposure; relative to untreated cultures; read-out: concentration giving 50% inhibition of population doubling
# Method: (§3) TSU-pr1 and Dupro-1 cell lines were plated in RPMI-1640 with 10% fetal bovine serum at 3 X 10^5 and 1 X 10^5 cells respectively/T25 flask in a humidified atmosphere of 95% air: 5% CO2. After 24 hours, initial plating density was measured. In addition, media was replaced (control) or cerulenin was added at 2.5-10 µg/ml to duplicate cultures. Forty-eight hours later, cells were trypsinized and viable cells (trypan blue excluding) counted. The number of population doublings was estimated.
# TSU-pr1 = test: as above; type: cell-based; conditions: Homo sapiens, 48-hour exposure, relative to untreated cultures, read-out: concentration giving 50% inhibition of population doubling
# Method: as §3
# MCF-7 cells [7] = test: 14C-acetate incorporation into cholesterol; type: cell-based, human; conditions: cerulenin 0, 2.5, 5.0 or 10.0 µg/ml; 6 hours
# Method: (§4) Measurement of endogenous fatty acid incorporation into acyl-glycerides: For each cell type, 200,000 cells were plated in triplicate for non-polar and polar lipid analysis. Following overnight growth, each well of cells was incubated for 2 hours with 1 µCi ^14C acetate. ^14C-labeled lipids were extracted as above, and dried under N2. For analysis of non-polar lipids, samples were resuspended in 10 ul chloroform and spotted on silica gel N-HR (Brinkmann) and chromatographed in hexane:ethyl ether:acetic acid, 65:25:4 by volume. Cholesterol, palmitic acid, tripalmitin, and cholesterol palmitate (Matreya) were run as controls at 50 µg each. […] 50 µg each of cholesterol, phosphatidyl ethanolamine, lecithin, and lysolecithin (Matreya) were run as controls. ^14C-labeled lipids were detected and quantified using a Bioscan System 2000 imaging scanner with Autochanger 3000. […] Phosphatidylcholine and triglycerides were the predominant acyl-glycerides detected.
# (§5) Measurement of endogenous fatty acid incorporation into acyl-glycerides and cholesterol: For each cell type, 200,000 cells were plated in triplicate for non-polar and polar lipid analysis for each drug dose in 24 well plates. […] For the last two hours of cerulenin incubation, 1 µCi of ^14C acetate was added per well. ^14C-labeled lipids were then extracted, chromatographed, and detected as described above. […]
# SKBR3 cells = test: 14C-acetate incorporation into cholesterol; type: cell-based, human; conditions: cerulenin 0, 2.5, 5.0 or 10.0 µg/ml; 6 hours
# Method: as §4, §5
# [8] = tested on: six cell lines listed in Table 3; test: 14C-acetate incorporation into acyl-glycerides; type: cell-based, human; conditions: cerulenin 0, 2.5, 5.0 or 10.0 µg/ml; 6 hours
# Method: as §4, §5
# [9] = target: T1, OA-519 fatty acid synthase (Homo sapiens, UniProt P49327); test: Spectrophotometric fatty acid synthase assay (NADPH oxidation at 340 nm); type: biochemical
# T1 construct: endogenous in cells; host or cells: ZR-75-1 breast carcinoma cell line (protein purified from the lysate)
# T1 sequence (P49327 2-2511 limits assumed): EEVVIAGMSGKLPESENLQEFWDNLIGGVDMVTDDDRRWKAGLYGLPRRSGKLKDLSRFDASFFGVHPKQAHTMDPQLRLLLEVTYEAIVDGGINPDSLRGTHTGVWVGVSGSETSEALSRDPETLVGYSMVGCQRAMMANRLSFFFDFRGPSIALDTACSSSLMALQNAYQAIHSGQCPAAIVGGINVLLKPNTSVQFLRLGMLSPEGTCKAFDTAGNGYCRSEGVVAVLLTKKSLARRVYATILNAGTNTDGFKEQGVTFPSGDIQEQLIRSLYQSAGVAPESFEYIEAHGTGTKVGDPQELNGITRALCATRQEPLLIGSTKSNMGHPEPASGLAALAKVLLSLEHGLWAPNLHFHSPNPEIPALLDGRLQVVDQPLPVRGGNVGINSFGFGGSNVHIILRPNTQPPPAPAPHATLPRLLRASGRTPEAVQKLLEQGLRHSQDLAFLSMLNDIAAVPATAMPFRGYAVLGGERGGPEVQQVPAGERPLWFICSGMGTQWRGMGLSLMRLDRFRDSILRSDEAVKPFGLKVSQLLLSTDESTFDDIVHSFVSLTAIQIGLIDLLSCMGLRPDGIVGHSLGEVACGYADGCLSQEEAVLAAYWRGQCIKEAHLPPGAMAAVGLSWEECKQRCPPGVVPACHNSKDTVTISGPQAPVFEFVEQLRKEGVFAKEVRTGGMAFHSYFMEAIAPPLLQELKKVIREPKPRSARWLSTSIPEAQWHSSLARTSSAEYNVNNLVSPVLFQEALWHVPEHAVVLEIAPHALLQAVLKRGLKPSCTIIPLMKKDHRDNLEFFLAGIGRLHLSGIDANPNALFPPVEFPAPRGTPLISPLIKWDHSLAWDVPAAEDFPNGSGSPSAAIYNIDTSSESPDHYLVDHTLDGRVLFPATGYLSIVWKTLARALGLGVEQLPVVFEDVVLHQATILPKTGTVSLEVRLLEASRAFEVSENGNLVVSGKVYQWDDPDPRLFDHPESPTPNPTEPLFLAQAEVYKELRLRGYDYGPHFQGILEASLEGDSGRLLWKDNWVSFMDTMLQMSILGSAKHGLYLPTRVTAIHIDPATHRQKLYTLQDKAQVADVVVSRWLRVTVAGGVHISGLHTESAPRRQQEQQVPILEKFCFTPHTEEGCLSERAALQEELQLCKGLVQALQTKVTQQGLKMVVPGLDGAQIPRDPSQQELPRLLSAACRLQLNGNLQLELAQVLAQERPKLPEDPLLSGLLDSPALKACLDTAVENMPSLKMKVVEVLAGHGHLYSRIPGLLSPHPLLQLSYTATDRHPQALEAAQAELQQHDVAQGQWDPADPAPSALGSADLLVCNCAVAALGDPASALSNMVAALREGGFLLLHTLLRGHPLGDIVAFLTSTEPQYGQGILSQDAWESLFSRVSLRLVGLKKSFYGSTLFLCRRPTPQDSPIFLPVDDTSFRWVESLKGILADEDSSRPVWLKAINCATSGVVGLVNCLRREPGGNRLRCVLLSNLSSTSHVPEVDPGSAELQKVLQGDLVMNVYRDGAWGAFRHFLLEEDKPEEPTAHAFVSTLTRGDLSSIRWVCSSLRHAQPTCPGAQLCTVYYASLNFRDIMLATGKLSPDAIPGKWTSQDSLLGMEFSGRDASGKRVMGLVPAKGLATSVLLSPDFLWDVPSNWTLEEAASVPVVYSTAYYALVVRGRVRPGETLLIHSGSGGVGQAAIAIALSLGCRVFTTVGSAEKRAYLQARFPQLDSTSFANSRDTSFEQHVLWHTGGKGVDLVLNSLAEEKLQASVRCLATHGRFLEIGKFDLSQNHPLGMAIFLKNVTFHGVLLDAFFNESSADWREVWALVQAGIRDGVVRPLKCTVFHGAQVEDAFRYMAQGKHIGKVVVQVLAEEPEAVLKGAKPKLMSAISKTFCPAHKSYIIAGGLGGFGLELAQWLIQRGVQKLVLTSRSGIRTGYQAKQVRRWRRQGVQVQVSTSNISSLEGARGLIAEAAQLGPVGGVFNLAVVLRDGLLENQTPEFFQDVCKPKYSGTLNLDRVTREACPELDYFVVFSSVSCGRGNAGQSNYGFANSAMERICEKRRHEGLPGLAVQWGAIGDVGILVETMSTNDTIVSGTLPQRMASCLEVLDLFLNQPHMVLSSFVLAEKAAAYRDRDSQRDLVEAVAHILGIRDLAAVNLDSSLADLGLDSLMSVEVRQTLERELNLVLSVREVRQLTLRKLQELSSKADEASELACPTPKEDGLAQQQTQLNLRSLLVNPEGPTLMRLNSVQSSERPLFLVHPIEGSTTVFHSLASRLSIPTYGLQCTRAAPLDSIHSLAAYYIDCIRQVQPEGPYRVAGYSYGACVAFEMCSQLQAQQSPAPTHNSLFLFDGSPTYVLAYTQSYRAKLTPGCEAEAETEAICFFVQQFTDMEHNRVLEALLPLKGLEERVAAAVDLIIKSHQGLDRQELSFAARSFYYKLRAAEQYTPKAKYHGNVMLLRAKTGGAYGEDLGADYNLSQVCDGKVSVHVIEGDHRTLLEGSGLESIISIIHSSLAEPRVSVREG
# Method: Spectrophotometric fatty acid synthase assay: The fatty acid synthase assay was performed in a total volume of 451 µl with the following components: 18.88 µg of purified OA-519 fatty acid synthase from the ZR-75-1 breast carcinoma cell line as described in Example 2, 25 nanomoles acetyl-CoA, 75 nanomoles NADPH, and 50 µl of 1 molar potassium phosphate, pH 6.6 at 25°C. The substrate malonyl-CoA was added at concentrations of 0.5 and 0.6 micromolar in the presence of 0, 9.9, 148, 198, or 397 micromolar cerulenin. HPLC grade water was added to achieve a final volume of 451 µl for all assays.
# The enzyme, NADPH, acetyl-CoA, phosphate, cerulenin, and water were combined, vortexed, and incubated in a Beckman DU 650 spectrophotometer at 37°C. Oxidation of NADPH was monitored at 340 nm without substrate to determine background for 2 min. Malonyl-CoA was then added to the reaction cuvette, mixed, and incubated at 37°C while NADPH oxidation was determined at 10 second intervals at 340 nm in the spectrophotometer for a total of 2 min. All determinations were performed in duplicate.
# Results: The spectrophotometric data was plotted according to Dixon (Dixon, M., Biochem. J., 55:170-171, 1953) which graphs inhibitor concentration versus 1/v for each given substrate concentration. […]
# H125 lung carcinoma line = test: Growth inhibition assay without oleic acid, single 24 h time point; type: cell-based; conditions: no oleic acid, line with 11.6 picomoles per minute enzyme activity
# Method: as §2
# Growth Inhibition Assay: Anti-proliferative activity of cerulenin for each cell line was determined using the same assay and drug concentrations described in Example 5, except that no oleic acid was added and a single 24 h time point was taken.
# H'27 = test: Crystal violet growth inhibition assay, 48 hour exposure; type: cell-based; conditions: Homo sapiens, read-out: ID50 (the source's name)
# Method: as §1
# ZR-75-1 = test: as above; type: cell-based; conditions: Homo sapiens, read-out: ID50 (the source's name)
# Method: as §1
# SW480 = test: as above; type: cell-based; conditions: Homo sapiens, read-out: ID50 (the source's name)
# Method: as §1
# [10] = SK-BR-3, 48 h, read-out: ID50 (µg/ml)
# [11] = SK-BR-3, 48 hours, dose giving 50% reduction of control absorbance, quadruplicate, read-out: ID50 (the source's name)
compound,measurement,setting,value
CCCCCCCCC(=O)C1OC1C(N)=O (centres unmarked) [Tetrahydrocerulenin],times less potent than cerulenin,condensing enzyme,80-150 times
CCC/C(=N\OCC)C1=C(O)CC(CC(C)SCC)CC1=O (centres unmarked) [Sethoxydim],IC50,[1]; [10],9.5 µg/mL
Nc1nc(N)nc(Nc2ccc([As]3SCC(CO)S3)cc2)n1 (centres unmarked) [melarsoprol],effect on normal human fibroblasts,normal human fibroblasts,little effect
same,effect on carcinoma cells,ZR-75-1 cells [2],anti-proliferative
CCN1C(=O)C=CC1=O [N-ethylmaleimide],IC50,[1]; [10],0.9 µg/mL
O=C(O)C(=O)CBr [Bromopyruvate],IC50,[1]; [10],52 µg/mL
"CCC/C=C/C/C=C/C=C/C=NN=NO [Triacsin C, 1-hydroxy-3-(E, E, E-2', 4', 7' - undecatrienylidine) triazene]",growth inhibition,Vero,inhibit growth
same,pIC50,[3],5.06
same,pIC50,ZR-75-1 cells [4]; cerulenin added at a level approximating its ID50,> 6.00
same,pIC50,"ZR-75-1 cells [4]; triacsin-C alone, read-out: ID50 (the source's name)",~4.82
same,growth inhibition,Hela cells,inhibit growth
same,concentration causing growth inhibition,Raji cells,1.0 µM
CC(C)(COP(=O)(O)OP(=O)(O)OC[C@H]1O[C@@H](n2cnc3c(N)ncnc32)[C@H](O)[C@@H]1OP(=O)(O)O)[C@@H](O)C(=O)NCCC(=O)NCCSCC(=O)O [S-carboxymethyl CoA],IC50,[1]; [11],61.4 µg/mL
Cc1cc2c(C(C)C)c(O)c(O)c(C=O)c2c(O)c1-c1c(C)cc2c(C(C)C)c(O)c(O)c(C=O)c2c1O [Gossypol],IC50,[1]; [10],3.1 µg/mL
NC(=O)CI [Iodoacetamide],IC50,[1]; [10],0.3 µg/mL
"C/C=C/C/C=C/CCC(=O)[C@H]1O[C@H]1C(N)=O [cerulenin, (2S) (3R) 2,3-epoxy-4-oxo-7,10 dodecadienoyl amide]",effect on growth,"normal human fibroblasts; cerulenin 6.25 µg/ml, 0.5 millimolar oleic acid",unaffected
same,effect on normal human fibroblasts,normal human fibroblasts,little effect
same,cell kill,MCF-7 cells [5],greater than three logs of cell kill
same,IC50,[1]; [11],3.6 µg/mL
same,reversal of growth inhibition by oleate,ZR-75-1 cells [6],virtually complete reversal of growth inhibition
same,inhibition at 6.25 µg/mL,"ZR-75-1 cells [2]; Homo sapiens, ZR-75-1, cerulenin 6.25 µg/ml, by 48 h, 0.5 millimolar oleic acid, read-out: growth inhibited",> 80%
same,effect on carcinoma cells,ZR-75-1 cells [2],anti-proliferative
same,concentration at which inhibition occurs,viral HIV protease,5 mg/mL
same,IC50,Dupro-1,3 to 4 µg/mL
same,IC50,TSU-pr1,3 to 4 µg/mL
same,cholesterol synthesis,MCF-7 cells [7],mild inhibition
same,cholesterol synthesis,SKBR3 cells,stimulation
same,incorporation of 14C-acetate into acyl-glycerides,[8],consistently and significantly inhibited in a dose-related manner
same,pKi,"[9]; for the substrate malonyl-CoA, Dixon plot, enzyme purified from ZR-75-1, read-out: apparent Ki",4.49
same,type of inhibition of OA-519 fatty acid synthase activity,[9]; purified OA-519,non-competitive inhibitor
same,growth inhibition,H125 lung carcinoma line,48%
"CCCCCCCCCCCCCCOc1ccc(C(=O)O)o1 [TOFA, 5 (tetradecyloxy)-2-furoic acid]",IC50,[1]; [11],4.6 µg/mL
same,IC50,H'27,44.7 µg/mL
same,IC50,ZR-75-1,0.8 µg/mL
same,IC50,SW480,59.8 µg/mL
